For series [1], the target named is T1, wild-type human AR (Homo sapiens, UniProt P10275).
T1 construct: utilizing plasmid expressing a full length of AR; expressed in transfected cells; host or cells: PC-3 cells, plasmid pCMV-AR-wt
T1 sequence (P10275 1-920): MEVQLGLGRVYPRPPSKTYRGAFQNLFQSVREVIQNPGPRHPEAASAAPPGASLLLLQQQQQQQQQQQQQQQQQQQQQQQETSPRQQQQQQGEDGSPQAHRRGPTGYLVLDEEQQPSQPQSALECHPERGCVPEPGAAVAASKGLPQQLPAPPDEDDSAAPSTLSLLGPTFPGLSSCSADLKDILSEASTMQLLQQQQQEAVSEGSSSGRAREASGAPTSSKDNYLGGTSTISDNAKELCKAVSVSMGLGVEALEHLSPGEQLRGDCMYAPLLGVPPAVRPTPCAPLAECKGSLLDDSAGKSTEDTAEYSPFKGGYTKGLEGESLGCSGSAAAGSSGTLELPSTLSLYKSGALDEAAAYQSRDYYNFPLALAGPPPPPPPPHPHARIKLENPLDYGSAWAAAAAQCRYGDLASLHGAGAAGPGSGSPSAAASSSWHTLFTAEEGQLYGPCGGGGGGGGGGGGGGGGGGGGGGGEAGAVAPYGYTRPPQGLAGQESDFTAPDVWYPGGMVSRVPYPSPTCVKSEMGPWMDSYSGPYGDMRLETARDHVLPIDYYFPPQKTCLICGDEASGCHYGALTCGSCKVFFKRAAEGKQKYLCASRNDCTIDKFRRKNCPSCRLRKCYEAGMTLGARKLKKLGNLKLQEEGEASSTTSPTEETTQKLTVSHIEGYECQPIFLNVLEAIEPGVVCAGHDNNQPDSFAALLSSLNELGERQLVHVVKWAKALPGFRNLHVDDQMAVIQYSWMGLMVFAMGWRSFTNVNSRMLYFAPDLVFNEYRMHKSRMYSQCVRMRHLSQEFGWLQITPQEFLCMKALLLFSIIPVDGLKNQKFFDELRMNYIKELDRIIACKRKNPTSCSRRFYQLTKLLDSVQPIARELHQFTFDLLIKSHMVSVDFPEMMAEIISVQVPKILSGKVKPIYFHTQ
The series is described as follows: Luciferase assay for AR transactivation, wild-type AR, PC-3 cells. It counts as cell-based. Also on record: Antiandrogenic activity evaluated by luciferase assay in PC-3 cells WT: key to the marks not given beside the values. The note with it: test compound 1 μM, 0.1 nM DHT. As to the method: (§1) PC-3 cells were transiently transfected with pCMV-MMTV-Luc, Renilla null luciferase and AR expressing plasmids. The cells were treated with 0.1 nM DHT with and without test compound for 24 hr. Relative luciferase activity was determined by dual luciferase assay kit (Promega), standardized to Renilla luciferase control and normalized to 0.1 nM DHT without test compound (100%).
(§2) After 16 h, the cells were treated with 0.1 nM of DHT and test compounds at the designated concentration. After further 24 h, the cells were lysed in 100 μL/well passive lysis buffer, and 20 μL of the cell lysates was used for detection of the luciferase activity using Dual Luciferase Assay System (Promega). All experiments were run in triplicate. Relative luciferase activity is determined as the ratio of inducible firefly luciferase luminescence divided by the luminescence of the renilla luciferase control normalized to 0.1 nM DHT without test compounds.
(§3) The potency of antagonistic activity: ++>+.
PC-3 cells were transiently transfected with plasmid expressing wild type human AR and MMTV-Luc. […] RLU, relative luciferase units, were normalized to that of 0.1 nM DHT alone.

Series [2] addresses T2, T877A mutated AR (Homo sapiens, UniProt P10275, T878A).
T2 sequence (P10275 1-920 T878A): T1 sequence (P10275 1-920) with T878A
The series can be described thus: Luciferase assay for AR transactivation, T877A AR, PC-3 cells. Format: cell-based. As to the method:
as §1, §2, §3

Series [3] concerns the target T3, H874Y mutated AR (Homo sapiens, UniProt P10275, H875Y).
T3 sequence (P10275 1-920 H875Y): T1 sequence (P10275 1-920) with H875Y
The series is described as follows: Luciferase assay for AR transactivation, H874Y AR, PC-3 cells. It counts as cell-based. The note with it: test compound 1 μM, 0.1 nM DHT. The procedure: as §1, §2, §3

In series [4] the test system is PC-3 cells. The series is described as follows: MTT cell growth inhibition, PC-3. The note with it: Part D table, 72 hours, I.A. = Inactive.
Series [5] concerns LNCaP cells. The series can be described thus: MTT cell growth inhibition, LNCaP.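 Note: MTT formazan absorbance at 600 nm read after 72 h of compound exposure, IC50 fitted by nonlinear regression of dose-response curves, samples run in triplicate.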 The note with it: Part D table, 72 hours, I.A. = Inactive.
Series [6] has as its system 22Rv1 cells. The series is described as follows: MTT cell growth inhibition, 22Rv1.
Protocol: MDA PCa 2b was seeded at the same density in medium BRFF-HPC1 (Athena Enzyme Systems, Baltimore, Md., USA) supplemented with 20% FBS. After overnight incubation, the medium was changed to a fresh medium containing different concentrations of test compounds diluted from stock DMSO solution. The final concentration of DMSO is 0.5%. After 72 h of incubation with test compounds, 20 μL of 3-(4,5-dimethyl thiazol-2-yl)-2,5-diphenyltetrazolium bromide (MTT) solution (5 mg/mL in PBS) were added to each well and incubated further for 2 h. Next, the supernatant was aspirated and the MTT formazan formed by metabolically viable cells was dissolved in 100 μL of isopropanol. The plates were mixed for 30 min, and the absorbance was measured at 600 nm on a plate reader (FLUOstar OPTIMA, BMG LabTech). All samples were in triplicate. The IC50 values were determined from dose-response curves by nonlinear regression using PRISM v5.00 (GraphPad Software Inc, La Jolla, Calif., USA).
The in vitro cytotoxicity of 1-20 were evaluated by MTT assays in a panel of prostate cancer cell lines, including LNCaP, MDA PCa 2b, 22Rv1, C4-2B and PC-3.
The test system of series [7] is C4-2B cells. The series is described as follows: MTT cell growth inhibition, C4-2B.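 Note: cells treated with a dilution series for 72 h, then MTT added and absorbance read at 600 nm, IC50 fitted from dose-response curves by nonlinear regression.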 The note with it: Part D table, 72 hours, I.A. = Inactive.
In series [8] the test system is MDA PCa 2b cells. The series can be described thus: MTT cell growth inhibition, MDA PCa 2b.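 Note: MDA PCa 2b prostate cancer cells in BRFF-HPC1 with 20% FBS, exposed to compounds for 72 h, viable-cell MTT formazan read as absorbance at 600 nm, 0.5% DMSO vehicle.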
Where [9] appears, read: 72 hrs, concentrations up to 50 μM, FIG. 2.

Molecules are shown by their SMILES. Residue numbers refer to the chain shown, from its start. Where only a bound is given, the exact number is not on record here.

In general, IC50 refers to the concentration that gives 50% inhibition.

As to `CC(C)(O)C(=O)Nc1ccc([N+](=O)[O-])c(C(F)(F)F)c1` [OHF, hydroxyflutamide, reference compound], the “Antiandrogenic activity evaluated by luciferase assay in PC-3 cells WT” value in series [1] is “++”. Moreover, the “agonist activity on T877A AR” value in series [2] (absence of DHT, PC-3 cells) is “activated”. Also, the “Antiandrogenic activity evaluated by luciferase assay in PC-3 cells T877A” value in series [2] (test compound 1 μM, 0.1 nM DHT) is on record as “Agonist”. For the same compound, the “Antiandrogenic activity evaluated by luciferase assay in PC-3 cells H874Y” value in series [3] is reported as “+”. The “Cytotoxicity in prostate cancer cell lines IC50 (μM), PC-3” value in series [4] is on record as “I.A”. Moreover, in series [5], the “Cytotoxicity in prostate cancer cell lines IC50 (μM), LNCaP” value was “I.A”. The “growth inhibitory effect on 22Rv1 cells” value in series [6] (setting [9]) is reported as “resistant”. Also, the IC50 was more than 50 µM in series [6] (read-out: Cytotoxicity in prostate cancer cell lines IC50 (μM), 22Rv1, Part D table, MTT, 72 hours) and more than 50 µM in series [8] (read-out: Cytotoxicity in prostate cancer cell lines IC50 (μM), PCa-2b, Part D table, MTT, 72 hours). Also, the “Cytotoxicity in prostate cancer cell lines IC50 (μM), C4-2B” value in series [7] was “I.A”. The “growth inhibitory effect on PCa 2b cells” value in series [8] (setting [9]) is given as “resistant”.

The values above are taken from US8470889B2 (TRT Pharma Inc., priority 2008, dated 2013).
